According to ChEMBL document CHEMBL1697781, “Assessment of the health effects of chemicals in humans: II. Construction of an adverse effects database for QSAR modeling” (Curr Drug Discov Technol, 2004):

Legend:
Details in all cases: human; call rule not given here
[1] = tested on: Hepatotoxicity; assay: FDA HLAED, liver enzyme composite activity
[2] = tested on: Hepatotoxicity; assay: FDA HLAED, alkaline phosphatase increase
[3] = tested on: Hepatotoxicity; assay: FDA HLAED, serum glutamic oxaloacetic transaminase (SGOT) increase
[4] = tested on: Hepatotoxicity; assay: FDA HLAED, serum glutamic pyruvic transaminase (SGPT) increase
[5] = tested on: Hepatotoxicity; assay: FDA HLAED, lactate dehydrogenase (LDH) increase
[6] = tested on: Hepatotoxicity; assay: FDA HLAED, gamma-glutamyl transferase (GGT) increase
For GGT Increase - Index Value in this document: reference of the scale not given here.
For LDH Increase - Index Value in this document: reference of the scale not given here.

Row | Structure (SMILES) | Composite Activity - Active [1] | Composite Activity - Marginal [1] | Composite Activity - Score [1] | Alkaline Phosphatase Increase - Activity Score [2] | Alkaline Phosphatase Increase - Index Value [2] | Alkaline Phosphatase Increase - Number of Reports [2] | SGOT Increase - Activity Score [3] | SGOT Increase - Index Value [3] | SGOT Increase - Number of Reports [3] | SGPT Increase - Activity Score [4] | SGPT Increase - Index Value [4] | SGPT Increase - Number of Reports [4] | LDH Increase - Activity Score [5] | LDH Increase - Index Value [5] | LDH Increase - Number of Reports [5] | GGT Increase - Activity Score [6] | GGT Increase - Index Value [6] | GGT Increase - Number of Reports [6] | further results
1 | C=CC[N+]1([C@H]2C[C@H]3[C@@H]4CC[C@H]5C[C@H](O)[C@@H](N6CCOCC6)C[C@]5(C)[C@H]4CC[C@]3(C)[C@H]2OC(C)=O)CCCC1.[Br-] [ROCURONIUM BROMIDE] | 0 | 0 | Inactive | Inactive | 0 | < 4 | Inactive | 0 | < 4 | Inactive | 0 | < 4 | Inactive | 0 | < 4 | Inactive | 0 | < 4 | –
2 | CCCN1CCCC[C@H]1C(=O)Nc1c(C)cccc1C [ROPIVACAINE] | 0 | 0 | Inactive | Inactive | 0 | < 4 | Inactive | 0 | < 4 | Inactive | 0 | < 4 | Inactive | 0 | < 4 | Inactive | 0 | < 4 | –
3 | OCc1cc(C(O)CNCCCCCCOCCCCc2ccccc2)ccc1O (configuration not stated) [SALMETEROL] | 0 | 0 | Inactive | Inactive | 0 | < 4 | Inactive | 0.1 | < 4 | Inactive | 0.1 | < 4 | Inactive | 0 | < 4 | Inactive | 0.1 | < 4 | –
4 | C#CCN(C)[C@H](C)Cc1ccccc1 [SELEGILINE] | 0 | 0 | Inactive | Inactive | 2.2 | >= 4 | Inactive | 0.4 | < 4 | Inactive | 1.5 | >= 4 | Inactive | 0 | < 4 | Inactive | 1.8 | >= 4 | –
5 | CN[C@H]1CC[C@@H](c2ccc(Cl)c(Cl)c2)c2ccccc21 [SERTRALINE] | – | – | – | Inactive | 2 | >= 4 | Inactive | 2.7 | >= 4 | Inactive | 2.1 | >= 4 | Inactive | 0.9 | >= 4 | Inactive | 2 | >= 4 | Composite Activity - Active ([1]; Liver): 0; Composite Activity - Marginal ([1]; Liver): 0; Composite Activity - Score ([1]; Liver): Inactive
6 | FCOC(C(F)(F)F)C(F)(F)F [SEVOFLURANE] | 0 | 0 | Inactive | Inactive | 3.1 | < 4 | Inactive | 4.6 | < 4 | Inactive | 0 | < 4 | Inactive | 1.6 | < 4 | Inactive | 0 | < 4 | –
7 | CC(C)NCC(O)c1ccc(NS(C)(=O)=O)cc1 (configuration not stated) [SOTALOL] | 0 | 0 | Inactive | Inactive | 1 | < 4 | Inactive | 3 | < 4 | Inactive | 0 | < 4 | Inactive | 1 | < 4 | Inactive | 1 | < 4 | –
8 | C[C@@H]1CN(c2c(F)c(N)c3c(=O)c(C(=O)O)cn(C4CC4)c3c2F)C[C@H](C)N1 [SPARFLOXACIN] | 0 | 0 | Inactive | Inactive | 0 | < 4 | Inactive | 0 | < 4 | Inactive | 0 | < 4 | Inactive | 0 | < 4 | Inactive | 0 | < 4 | –
9 | Cc1cn([C@H]2C=C[C@@H](CO)O2)c(=O)[nH]c1=O [STAVUDINE] | 2 | 1 | Active | Inactive | 2.4 | >= 4 | Active | 9.1 | >= 4 | Active | 9.7 | >= 4 | Inactive | 1.8 | < 4 | Marginally Active | 3.6 | >= 4 | –
